Data set [1] in a line: Moisture uptake on exposure to room conditions. Format: physicochemical. To be noted: exposed to room conditions, relative humidity average of 45%, ten days. An excerpt: In addition to its novel features, the physical form obtained has physical characteristics that make it useful in preparing pharmaceutical preparations, with significant advantages over the forms existing to date. […] In contrast, the anhydrous crystalline form obtained here, when exposed to room conditions, at an relative humidity average of 45%, for ten days, increases its moisture content by only 0.55%, while a reference sample of dihydrated azithromycin increased its moisture content by 1% in the same time.

Data set [2] is described as follows: Dissolution profile of 500 mg azithromycin tablets. Conditions: total weight one gram, solvents and procedure similar to capsules in U.S. Pharmacopoeia 2000, page 186. Format: physicochemical. On the procedure: In order to test the performance of anhydrous crystalline azithromycin in producing pharmaceutical preparations, 500 mg azithromycin tablets were made with total weight of one gram. The dissolution profile of these tablets was determined, and compared with the dissolution profile of tablets made with the same preparation using dihydrated azithromycin. The used solvents, and the procedure followed, were similar to those indicated for capsules in U.S. Pharmacopoeia 2000, page 186. […] This property gives the anhydrous crystalline form reported herein significant practical advantages over the dihydrated forms, given that increased solubility of the pharmaceutical preparation generally implies greater bioavailabilty of the drug and in consequence increases its therapeutic effectiveness.

For data set [3] the following is noted: as indicated by patent PCT/US87/0612; cited from earlier work.

Each structure is given as a SMILES string.

`CCC1OC(=O)C(C)C(OC2CC(C)(OC)C(O)C(C)O2)C(C)C(OC2OC(C)CC(N(C)C)C2O)C(C)(O)CC(C)CN(C)C(C)C(O)C1(C)O` (stereo not shown) [dihydrated azithromycin, 9-deoxo-9a-methyl-9a-aza-9a-homoerythromycin A]: the “increase of moisture content” value in data set [1] is reported as 1%. In the case of `CCC1OC(=O)C(C)C(OC2CC(C)(OC)C(O)C(C)O2)C(C)C(OC2OC(C)CC(N(C)C)C2O)C(C)(O)CC(C)CN(C)C(C)C(O)C1(C)O` (stereo not shown) [anhydrous crystalline form, 9-deoxo-9a-methyl-9a-aza-9a-homoerythromycin A], the “increase of moisture content” value in data set [1] is recorded as 0.55%. Further, the “dissolution values of tablets compared with tablets made with dihydrated azithromycin” value in data set [2] is listed as “significantly higher”. Regarding `CCC1OC(=O)C(C)C(OC2CC(C)(OC)C(O)C(C)O2)C(C)C(OC2OC(C)CC(N(C)C)C2O)C(C)(O)CC(C)CN(C)C(C)C(O)C1(C)O` (stereo not shown) [forms reported by Kobrehel et al., 9-deoxo-9a-methyl-9a-aza-9a-homoerythromycin A], the hygroscopicity entry in data set [3] is “highly hygroscopes”.
